The record followed here is US20250388541A1, “HETEROARYL COMPOUNDS FOR THE TREATMENT OF PAIN” (VERTEX PHARMACEUTICALS INCORPORATED, priority 2022, published 2025).

For this assay, the target named is human NaV 1.8 (Homo sapiens, UniProt Q9Y5Y9). Put plainly: E-VIPR assay detecting and measuring NaV inhibition properties. Type of assay: cell-based. To be noted: HEK cells expressing a truncated form of human NaV 1.8; electrical stimulation, membrane potential FRET dyes; read-out: measured IC50 value in the E-VIPR Assay. An excerpt: E-VIPR Assay Detecting and Measuring NaV Inhibition Properties
Sodium ion channels are voltage-dependent proteins that can be activated by inducing membrane voltage changes by applying electric fields. […] The instrument comprises a microtiter plate handler, an optical system for exciting the coumarin dye while simultaneously recording the coumarin and oxonol emissions, a waveform generator, a current- or voltage-controlled amplifier, and parallel electrode pairs that are inserted into assay plate wells. Under integrated computer control, this instrument passes user-programmed electrical stimulus protocols to cells within the wells of the microtiter plate.
16-20 hours prior to running the assay on E-VIPR, HEK cells expressing a truncated form of human NaV 1.8 with full channel activity were seeded into microtiter 384-well plates, pre-coated with matrigel, at a density of 25,000 cells per well. 2.5-5% KIR2.1 BacMam virus was added to the final cell suspension before seeding into cell plates. […] Cells were expanded in 5-layer CellSTACK culture chambers or cell culture flasks with vented caps, with 90-95% humidity and 5% CO2.
• Bath 1 Buffer containing 0.5% 3-cyclodextrin (made fresh prior to each use, Sigma #C4767), […] CC2-DMPE and 2 μM DiSBAC6(3). The solution was made by adding 10% Pluronic F127 stock equal to combined volumes of CC2-DMPE and DiSBAC6(3).
The compound plate was backfilled with 45 μL per well of Compound Loading Buffer resulting in a 240-fold dilution of compound following a 1:1 transfer of compound into the cell plate (see Step 6). […] This assay dilution protocol was adjusted to enable a higher dose range to be tested in the presence of HS or if the final assay volume was altered. • 2) Hexyl Dye Solution was prepared. • 3) Cell plates were prepared. On the day of the assay, the media was aspirated, and the cells were washed three times with 80 μL of Bath-1 buffer, maintaining 25 μL residual volume in each well. • 4) 25 μL per well of Hexyl Dye Solution was dispensed into the cell plates. The cells were incubated for 20 minutes at room temperature or ambient conditions in darkness. • 5) 45 μL per well of Compound Loading Buffer was dispensed into compound plates. • 6) The cell plates were washed three times with 80 μL per well of Bath-1 Buffer, leaving 25 μL of residual volume. Then 25 µL per well from compound plate was transferred to each cell plate. The mixture was incubated for 30 minutes at room temperature/ambient conditions. • 7) The cell plate containing compound was read on E-VIPR using the current-controlled amplifier to deliver stimulation wave pulses using a symmetrical biphasic waveform. […] A pre-stimulus recording was performed for each well for 0.5 seconds to obtain the un-stimulated intensities baseline. The stimulatory waveform was followed by 0.5 seconds of post-stimulation recording to examine the relaxation to the resting state. All E-VIPR responses were measured at 200 Hz acquisition rate.
The response as a function of time was reported as the ratios obtained using the following formula: […]
The data were normalized by calculating the initial (Ri) and final (Rf) ratios. These were the average ratio values during part or all of the pre-stimulation period and during sample points during the stimulation period. The fluorescence ratio (Rf/Ri) was then calculated and reported as a function of time.
Control responses were obtained by performing assays in the presence of the positive control, and in the absence of pharmacological agents (DMSO vehicle negative control). Responses to the negative (N) and positive (P) controls were calculated as above. The compound antagonist % activity A was then defined as:
[formula] • where X is the maximum amplitude of the ratio response or number of action potential peaks, at the beginning of the pulse train in the presence of test compound.

SMILES strings stand for the structures.

Chain of human NaV 1.8 (Q9Y5Y9 126-399 limits assumed): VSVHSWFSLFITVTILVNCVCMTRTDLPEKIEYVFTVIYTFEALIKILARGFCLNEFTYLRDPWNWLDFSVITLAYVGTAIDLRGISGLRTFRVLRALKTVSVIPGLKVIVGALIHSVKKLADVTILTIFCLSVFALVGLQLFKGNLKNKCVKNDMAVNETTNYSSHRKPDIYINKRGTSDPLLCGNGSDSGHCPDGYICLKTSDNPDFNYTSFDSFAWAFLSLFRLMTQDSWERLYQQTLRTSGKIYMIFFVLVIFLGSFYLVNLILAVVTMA
Chain of human NaV 1.8 (Q9Y5Y9 660-890 limits assumed): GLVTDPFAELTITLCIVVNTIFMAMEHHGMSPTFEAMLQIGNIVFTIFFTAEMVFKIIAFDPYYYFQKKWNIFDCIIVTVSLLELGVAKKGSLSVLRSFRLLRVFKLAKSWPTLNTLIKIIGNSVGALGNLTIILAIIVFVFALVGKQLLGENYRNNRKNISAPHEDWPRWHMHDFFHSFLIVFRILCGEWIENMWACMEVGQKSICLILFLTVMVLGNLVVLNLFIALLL
Chain of human NaV 1.8 (Q9Y5Y9 1148-1722 limits assumed): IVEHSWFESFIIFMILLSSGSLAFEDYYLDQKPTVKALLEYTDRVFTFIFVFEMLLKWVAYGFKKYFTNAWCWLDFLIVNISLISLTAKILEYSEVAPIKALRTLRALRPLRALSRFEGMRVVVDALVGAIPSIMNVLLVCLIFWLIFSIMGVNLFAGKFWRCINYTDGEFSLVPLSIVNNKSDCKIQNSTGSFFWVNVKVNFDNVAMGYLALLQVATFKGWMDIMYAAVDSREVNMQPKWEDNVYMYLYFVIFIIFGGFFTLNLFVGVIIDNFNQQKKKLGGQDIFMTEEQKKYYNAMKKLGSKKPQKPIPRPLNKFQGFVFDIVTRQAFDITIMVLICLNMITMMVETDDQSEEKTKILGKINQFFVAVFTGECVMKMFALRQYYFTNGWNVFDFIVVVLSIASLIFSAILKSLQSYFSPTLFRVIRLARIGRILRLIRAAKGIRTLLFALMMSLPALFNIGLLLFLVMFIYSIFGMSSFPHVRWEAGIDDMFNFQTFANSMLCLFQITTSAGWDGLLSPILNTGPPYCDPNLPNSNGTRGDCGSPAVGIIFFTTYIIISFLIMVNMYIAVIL

In the case of `COc1c(-c2ccc(C(C)(C)C)cc2C)[nH]c(C)cc1=O` [Compound 107, 2-(4-tert-butyl-2-methyl-phenyl)-3-methoxy-6-methyl-1H-pyridin-4-one], the IC50 was 500 to 2000 nM.
Consider `Cc1cc(=O)cc(-c2c(C)cc(C(C)(C)C)cc2C)[nH]1` [Compound 3, 2-(4-tert-butyl-2,6-dimethyl-phenyl)-6-methyl-1H-pyridin-4-one], for which the half-maximal inhibitory concentration (IC50) fell in the range of 500 to 2000 nM.
Consider `Cc1cc(=O)cc(-c2ccc(C3(C(F)(F)F)CC3)cc2C)[nH]1` [Compound 96, 2-methyl-6-[2-methyl-4-[1-(trifluoromethyl)cyclopropyl]phenyl]-1H-pyridin-4-one], for which the IC50 was 500 to 2000 nM.
With `Cc1cc(=O)cc(-c2ccc(C(C)C)cc2C(C)C)[nH]1` [Compound 43, 2-(2,4-diisopropylphenyl)-6-methyl-1H-pyridin-4-one], the IC50 lay within 2000 to 5000 nM.
Turning to `Cc1cc(C(C)(C)C)ccc1-c1cc(=O)c(NC(=O)[C@H](C)N)c(C)[nH]1` [Compound 156, (2S)-2-amino-N-[6-(4-tert-butyl-2-methyl-phenyl)-2-methyl-4-oxo-1H-pyridin-3-yl]propanamide], the IC50 was in the range of 2000 to 5000 nM.
With `Cc1cc(=O)c(C)c(-c2ccc(C(C)(C)C)cc2C)[nH]1` [Compound 75, 2-(4-tert-butyl-2-methyl-phenyl)-3,6-dimethyl-1H-pyridin-4-one], the IC50 is 500 to 2000 nM.
Consider `CCOC(=O)c1c(-c2c(C)cc(C(C)(C)C)cc2C)[nH]c(C)c(C)c1=O` [Compound 98, ethyl 2-(4-tert-butyl-2,6-dimethyl-phenyl)-5,6-dimethyl-4-oxo-1H-pyridine-3-carboxylate], for which the IC50 fell in the range of 500 to 2000 nM.
`COCn1ccnc1-c1c(C)[nH]c(-c2cc(Cl)c(C(C)(C)C)cc2C)cc1=O` [Compound 201, 6-(4-tert-butyl-5-chloro-2-methyl-phenyl)-3-[1-(methoxymethyl)imidazol-2-yl]-2-methyl-1H-pyridin-4-one]: the IC50 was in the range of 2000 to 5000 nM.
Regarding `Cc1[nH]c(-c2ccc(C(C)(C)C)cc2)cc(=O)c1C` [Compound 79, 6-(4-tert-butylphenyl)-2,3-dimethyl-1H-pyridin-4-one], the IC50 lay within 500 to 2000 nM.
On to `Cc1cc(=O)c(C)c(-c2ccc(C(C)(C)C)cc2)[nH]1` [Compound 77, 2-(4-tert-butylphenyl)-3,6-dimethyl-1H-pyridin-4-one], for which the IC50 lay in the range of 500 to 2000 nM.
For `Cc1cc(C(C)(C)C)c(Cl)cc1-c1cc(=O)c(-c2cn(C)c(C)n2)c(C)[nH]1` [Compound 197, 6-(4-tert-butyl-5-chloro-2-methyl-phenyl)-3-(1,2-dimethylimidazol-4-yl)-2-methyl-1H-pyridin-4-one], the IC50 lay in the range of 500 to 2000 nM.
For `Cc1cc(C(C)(C)C)c(Cl)cc1-c1cc(=O)c(S(=N)(=O)C(C)C)c(C)[nH]1` (stereo not drawn) [Compound 145, 6-(4-tert-butyl-5-chloro-2-methyl-phenyl)-3-(isopropylsulfonimidoyl)-2-methyl-1H-pyridin-4-one], the IC50 fell in the range of 500 to 2000 nM.
Regarding `COc1nc2ccccc2cc1-c1cc(=O)c(C)c(C)[nH]1` [Compound 95, 6-(2-methoxy-3-quinolyl)-2,3-dimethyl-1H-pyridin-4-one], the IC50 is 2000 to 5000 nM.
Consider `Cc1nc(-c2ccc(C(C)(C)C)cc2C)cc(=O)[nH]1` [Compound 83, 4-(4-tert-butyl-2-methyl-phenyl)-2-methyl-1H-pyrimidin-6-one], for which the IC50 is 2000 to 5000 nM.
With `Cc1cc(C(C)(C)C)ccc1-c1cc(=O)c(C2=CCNCC2)c(C)[nH]1` [Compound 205, 6-(4-tert-butyl-2-methyl-phenyl)-2-methyl-3-(1,2,3,6-tetrahydropyridin-4-yl)-1H-pyridin-4-one], the IC50 lay in the range of 500 to 2000 nM.
Regarding `CCOc1c(-c2ccc(C(C)(C)C)cc2C)[nH]c(C)cc1=O` [Compound 106, 2-(4-tert-butyl-2-methyl-phenyl)-3-ethoxy-6-methyl-1H-pyridin-4-one], the IC50 was in the range of 500 to 2000 nM.
As for `Cc1cc(C(C)(C)C)ccc1-c1cc(=O)c(-c2cccnc2C#N)c(C)[nH]1` [Compound 172, 3-[6-(4-tert-butyl-2-methyl-phenyl)-2-methyl-4-oxo-1H-pyridin-3-yl]pyridine-2-carbonitrile], the IC50 is 500 to 2000 nM.
`Cc1cc(C(C)(C)C)ccc1-c1cc(=O)c(C2CCN(C)CC2)c(C)[nH]1` [Compound 204, 6-(4-tert-butyl-2-methyl-phenyl)-2-methyl-3-(1-methyl-4-piperidyl)-1H-pyridin-4-one]: the IC50 fell in the range of 500 to 2000 nM.
As to `Cc1cc(=O)c(C)c(-c2ccc(C3(C(F)(F)F)CC3)cc2)[nH]1` [Compound 78, 3,6-dimethyl-2-[4-[1-(trifluoromethyl)cyclopropyl]phenyl]-1H-pyridin-4-one], the IC50 lay in the range of 2000 to 5000 nM.
In the case of `Cc1[nH]c(-c2ccc(C3(C(F)(F)F)CC3)cc2)cc(=O)c1C` [Compound 82, 2,3-dimethyl-6-[4-[1-(trifluoromethyl)cyclopropyl]phenyl]-1H-pyridin-4-one] it was 500 to 2000 nM; in that of `CC(=O)Nc1c(C)[nH]c(-c2ccc(C(C)(C)C)cc2C)cc1=O` [Compound 157, N-[6-(4-tert-butyl-2-methyl-phenyl)-2-methyl-4-oxo-1H-pyridin-3-yl]acetamide], 500 to 2000 nM.
With `Cc1cc(C(C)(C)C)ccc1-c1cc(=O)c(C2=CCN(C)CC2)c(C)[nH]1` [Compound 174, 6-(4-tert-butyl-2-methyl-phenyl)-2-methyl-3-(1-methyl-3,6-dihydro-2H-pyridin-4-yl)-1H-pyridin-4-one], the IC50 fell in the range of 2000 to 5000 nM.
Consider `Cc1cc(C(C)(C)C)ccc1-c1cc(=O)cc(N(C)C)[nH]1` [Compound 100, 2-(4-tert-butyl-2-methyl-phenyl)-6-(dimethylamino)-1H-pyridin-4-one], for which the IC50 fell in the range of 500 to 2000 nM.
`Cc1cc(C(C)(C)C)ccc1-c1cc(=O)c(NC(=O)[C@@H](C)N)c(C)[nH]1` [Compound 155, (2R)-2-amino-N-[6-(4-tert-butyl-2-methyl-phenyl)-2-methyl-4-oxo-1H-pyridin-3-yl]propanamide]: the IC50 was in the range of 500 to 2000 nM.
`Cc1cc(C(C)(C)C)ccc1-c1cc(=O)c(CN)c(C)[nH]1` [Compound 154, 3-(aminomethyl)-6-(4-tert-butyl-2-methyl-phenyl)-2-methyl-1H-pyridin-4-one]: the IC50 lay in the range of 500 to 2000 nM.
In the case of `COc1cc(=O)cc(-c2ccc(C(C)(C)C)cc2C)[nH]1` [Compound 104, 2-(4-tert-butyl-2-methyl-phenyl)-6-methoxy-1H-pyridin-4-one] it was 2000 to 5000 nM; in that of `Cc1cc(C(C)(C)C)c(Cl)cc1-c1cc(=O)c(-c2ncc[nH]2)c(C)[nH]1` [Compound 212, 6-(4-tert-butyl-5-chloro-2-methyl-phenyl)-3-(1H-imidazol-2-yl)-2-methyl-1H-pyridin-4-one], 500 to 2000 nM.

In general, IC50 refers to the point on the concentration scale where inhibition reaches its midpoint.
